In patent US11590139B2, “Substituted aminopurine compounds, compositions thereof, and methods of treatment therewith” (Signal Pharmaceuticals, LLC, priority 2014, dated 2023) one finds IC50 data, which are given here for 11 compounds.

Molecules are shown by their SMILES. Where two headings read alike, the source gives them in different places.

This assay relates to Lox-IMVI melanoma cell line. Description: Lox-IMVI anti-proliferative assay (growth inhibition, Cell Titer-Glo). The format is cell-based, human. The following applies: Homo sapiens. An outline of the steps:
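First, compound was dispensed as a 10-point 3-fold series (0.5 nM–10 μM, duplicate). Then cells in RPMI + 10% FBS were added and grown 72 h at 37 °C with 0.2% DMSO. Finally, ATP luminescence was read and IC50 calculated versus DMSO control.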

Setting [1] is: IC50 activity level in the cell-based Lox-IMVI anti-proliferative assay, read-out: Activity.
Where [2] appears, read: Lox-IMVI melanoma cell line, anti-proliferative assay, read-out: Activity (IC50 activity level).

With `COC[C@H](C)Nc1ncc2nc(Nc3c(Cl)cc(Cl)cc3Cl)n([C@H]3CC[C@@H](C(N)=O)CC3)c2n1` [Example 142, (1R,4s)-4-(2-((S)-1-methoxypropan-2-ylamino)-8-(2,4,6-trichlorophenylamino)-9H-purin-9-yl)cyclohexanecarboxamide], under setting [1], the IC50 was above 1000 nM.

As for `NC(=O)[C@H]1CC[C@@H](n2c(Nc3c(F)cc(F)cc3Cl)nc3cnc(NC4CC5(COC5)C4)nc32)CC1` [Example 175, (1s,4s)-4-(2-(2-oxaspiro[3.3]heptan-6-ylamino)-8-(2-chloro-4,6-difluorophenylamino)-9H-purin-9-yl)cyclohexanecarboxamide], the IC50 under setting [1] lay in the range of 500 to 1000 nM.

As for `NC(=O)[C@H]1CC[C@@H](n2c(Nc3c(F)cc(Cl)cc3F)nc3cnc(N[C@H]4CCC(F)(F)C4)nc32)CC1` [Example 587, (1R,4s)-4-(8-(4-chloro-2,6-difluorophenylarnino)-2-((S)-3,3-difluorocyclopentylamino)-9H-purin-9-yl)cyclohexanecarboxamide], where the note is “Lox-IMVI anti-proliferative assay, IC50 activity level, read-out: Activity”, the IC50 fell in the range of 250 to 500 nM.

As to `CC(=O)N1CCC[C@@H](Nc2ncc3nc(Nc4c(Cl)cc(F)cc4Cl)n([C@H]4CC[C@@H](C(N)=O)CC4)c3n2)C1` [Example 799, (1S,4s)-4-(2-((R)-1-acetylpiperidin-3-ylamino)-8-(2,6-dichloro-4-fluorophenylamino)-9H-purin-9-yl)cyclohexanecarboxamide], for the setting “Lox-IMVI anti-proliferative assay, cell-based, read-out: Activity (IC50 activity level)”, the IC50 was above 1000 nM.

With `CS(=O)(=O)N1CCC[C@@H](Nc2ncc3nc(Nc4c(Cl)cc(C#N)cc4Cl)n([C@H]4CC[C@@H](C(N)=O)CC4)c3n2)C1` [Example 702, (1S,4s)-4-(8-(2,6-dichloro-4-cyanophenylamino)-2-((R)-1-(methylsulfonyl)piperidin-3-ylamino)-9H-purin-9-yl)cyclohexanecarboxamide], the IC50 under setting [2] is above 1000 nM.

Consider `NC(=O)[C@H]1CC[C@@H](n2c(Nc3c(Cl)cc(Cl)cc3Cl)nc3cnc(N[C@@H]4CCC[C@H](O)C4)nc32)CC1` [Example 353, (1S,4s)-4-(2-((1R,3S)-3-hydroxycyclohexylamino)-8-(2,4,6-trichlorophenylamino)-9H-purin-9-yl)cyclohexanecarboxamide], for which the IC50 under setting [1] was 250 to 500 nM.

Regarding `C[C@@H](CO)Nc1ncc2nc(Nc3ccc(Cl)cc3Cl)n([C@H]3CC[C@@H](C(N)=O)CC3)c2n1` [Example 170, (1R,4s)-4-(8-(2,4-dichlorophenylamino)-2-((S)-1-hydroxypropan-2-ylamino)-9H-purin-9-yl)cyclohexanecarboxamide], the IC50 under setting [1] is above 1000 nM.

Take `NC(=O)[C@H]1CC[C@@H](n2c(Nc3cc(F)c(Cl)cc3F)nc3cnc(NC4CCOCC4)nc32)CC1` [Example 70, (1s,4s)-4-(8-(4-chloro-2,5-difluorophenylamino)-2-(tetrahydro-2H-pyran-4-ylamino)-9H-purin-9-yl)cyclohexanecarboxamide]: the IC50 under setting [1] lay within 500 to 1000 nM.

Consider `CC(C)N1CCC[C@@H](Nc2ncc3nc(Nc4c(Cl)cc(C#N)cc4Cl)n([C@H]4CC[C@@H](C(N)=O)CC4)c3n2)C1` [Example 739, (1S,4s)-4-(8-(2,6-dichloro-4-cyanophenylamino)-2-((R)-1-isopropylpiperidin-3-ylamino)-9H-purin-9-yl)cyclohexanecarboxamide], for which, under setting [2], the IC50 is above 1000 nM.

In the case of `NC(=O)[C@H]1CC[C@@H](n2c(Nc3c(Cl)cc(F)cc3Cl)nc3cnc(N[C@@H]4CCCN(C(=O)Nc5ccccc5)C4)nc32)CC1` [Example 784, (R)-3-(9-((1s,4S)-4-carbamoylcyclohexyl)-8-(2,6-dichloro-4-fluorophenylamino)-9H-purin-2-ylamino)-N-phenylpiperidine-1-carboxamide], the IC50 under setting [2] was above 1000 nM.

In the case of `Cc1ccc(S(=O)(=O)N2CCC[C@@H](Nc3ncc4nc(Nc5c(F)cc(C#N)cc5Cl)n([C@H]5CC[C@@H](C(N)=O)CC5)c4n3)C2)cc1` [Example 795, (1S,4s)-4-(8-(2-chloro-4-cyano-6-fluorophenylamino)-2-((R)-1-tosylpiperidin-3-ylamino)-9H-purin-9-yl)cyclohexanecarboxamide], under setting [2], the IC50 was above 1000 nM.
